This note sets out measurements from patent US9381191B2, “Imidazopyridine derivatives useful in treating diabetes” (METABRAIN RESEARCH, priority 2012, dated 2016).

Each structure is given as a SMILES string.

In experiment [1] the test system is isolated rat hepatocytes. Description: Hepatic production of glucose, 20 h incubation. Type of experiment: cell-based, Wistar rat. As to conditions: for HGP % of ctrl @ 50 μM / HGP % of ctrl @ 100 μM: rat hepatocytes. On the procedure: The hepatocytes are isolated from Wistar rat liver having fasted for 24 h after perfusion of collagenase in the portal vein. 1) The freshly isolated hepatocytes are sown in 6-well plates coated with collagen and containing an adhesion medium (Williams Medium). After adhesion, the medium is replaced with RPMI 1640 medium without any glucose, containing hydrocortisone (7·10^−5M) for a duration from 16 to 18 h. The next day, the glucose hepatic production test is conducted in a Krebs medium for 3 h. The basal conditions are cells incubated with only Krebs, the stimulated conditions are the cells placed in Krebs+lactate+pyruvate, the produced conditions are the cells exposed to chemical compounds in a Krebs/lactate/pyruvate medium. In the case when the compounds are dissolved in DMSO, all the conditions of the tests are met in the presence of a final concentration of 0.1% DMSO. The positive control of the test is the mercaptopicolinate known for its inhibitory action on hepatic production of glucose via the phosphoenolpyruvate carboxykinase. For short term treatments, the compounds are incubated for 3 h. For long term treatments, the compounds are incubated for 20 h at the moment when the hepatocytes are cultivated in RPMI and then added during the hepatic production test for 3 h. At the end of the 3 hours of incubation, the supernatant is recovered for measurement of glucose with a colorimetric method using glucose oxidase. The cells are lysed with a 0.1% NaOH aqueous solution in order to measure the amount of protein with the Lowry method. The results are expressed in mmol of glucose per mg of protein.

For experiment [2], the system named is INS-1 cells. Put plainly: Stimulation test of insulin secretion by INS-1 cells. Type of experiment: cell-based. As to conditions: Rattus norvegicus, INS1, 1 h, insulin secretion by INS-1 cells in response to glucose; for insulin secretion, % of control at 10 µM: read-out: HGP % of ctrl @ 10 μM; for insulin secretion, % of control at 50 µM: read-out: HGP % of ctrl @ 50 μM. A digest of the protocol:
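Rat INS-1 beta cells, starved 16 h in 5 mM glucose and pre-incubated 30 min in Krebs with 2.8 mM glucose, were exposed 1 h to compound in Krebs pH 7.4 with 3.5 mM glucose and 0.1% albumin. Secreted insulin was measured by ELISA in triplicate. Stimulation was scored at ≥130% of control.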

Experiment [3] relates to isolated perfused pancreases of N0STZ diabetic rats. Description: Insulin secretion in response to glucose at isolated perfused pancreases of N0STZ diabetic rats. More on the design: species or system rat. As to conditions: glucose 16.5 mM, control group 560 ± 71. As to the method:
The pancreas was taken on rats made to be diabetic by injection of Streptozotocin on the day of birth and anaesthetized with Pentobarbital (Nembutal©: 45 mg/kg; intraperitoneal route). These rats have a specific deficiency of the insulin response to glucose, as observed in humans with diabetes of type II. The isolation and the perfusion of the pancreas were achieved according to a modification of the procedure described by Sussman et al.. The effect of the compounds or reference substances is tested for 35 minutes (from t=20 min to t=55 min) in Krebs buffer, and then 20 minutes (from t=55 min to t=75 min) in the presence of glucose 16.5 mM. The concentration of insulin secreted into the medium is measured by an Elisa assay (ELISA Alpco Cat no. 80-INSRTH-E10). The results are expressed as an average +/−SEM (Standard Error of the Mean) of several experiments.

The test system of experiment [4] is isolated rat hepatocytes. Description: Hepatic production of glucose, 3 h incubation. The note with it: Hepatocyte, rat hepatocytes. Type of experiment: cell-based, Wistar rat. A digest of the protocol:
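Rat hepatocytes from 24 h-fasted Wistar rats, cultured 16–18 h in glucose-free RPMI with hydrocortisone (7·10^−5M), then tested 3 h in Krebs + lactate + pyruvate with compound (0.1% DMSO). Long treatment: compound 20 h during RPMI culture plus 3 h test. Supernatant glucose by glucose-oxidase colorimetry, normalised to Lowry protein (mmol/mg).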

Experiment [5] has as its system GK rats. Put plainly: Antidiabetic activity in GK (Goto-Kakisaki) rats. As to conditions: single oral dose 50 mg/kg. Type of experiment: in vivo, rat. As to the method: The antidiabetic activity of compound 118 was evaluated in GK rats, a non-obese model of diabetes of type II. This model was obtained by cross-breeding of Wistar rats selected on the basis of a slight intolerance to glucose. These rats have the majority of dysfunctions observed in diabetes of type II in humans: hyperglycaemia, intolerance to glucose, insulin-resistance, and deteriorated insulin response to glucose. These animals were bred at Metabrain and were housed in an animal housing facility with a regulated temperature (22±2° C.) under constant humidity (50±20%) with a day/night cycle of 12 h (light from 7 h-19 h) and have access ad libitum to food and drink. The housing and experimentation conditions comply with the European directives relating to health and ethical treatment of laboratory animals (ETS123). In this study, the rats used are male 16-week old GK rats having fasted for 2 hours before beginning the study (postabsorptive condition). Monitoring of glycaemia is carried out on 2 groups of rats: One group treated with the compound 118 orally at the single dose of 50 mg/kg and a control group treated orally with the carrier. A blood sample was taken at T0 just before administration of the compound 118 or of the carrier and at times T1 h, T2 h, T4 h and T6 h after administration. The determination of glycaemia is achieved from a drop of blood taken from the tail measured with a glucometer Accu-Check Performa. The results shown below are expressed as a percentage of the decrease of glycaemia at T1 h, T2 h, T4 h and T6 h for the group treated with the compound 118 as compared with the control group

With `CC(C)OC(=O)COCc1nc2ccccn2c1C#Cc1ccc(F)cc1` [Derivative 54, isopropyl 2-((3-((4-fluorophenyl)ethynyl)imidazo [1,2-a]pyridin-2-yl)methoxy) acetate], in experiment [1], the “HGP % of ctrl @ 50 μM” value is given as 64 % of ctrl and the “HGP % of ctrl @ 100 μM” value is reported as 44 % of ctrl. Also, the insulin secretion, % of control at 10 µM in experiment [2] amounted to 203%. Moreover, the “Insulin secretion peak at G16.5 mM, Tested product” value (“Insulin secretion peak at G16.5 mM” below) in experiment [3] (tested concentration 1 μM) is 961 ± 130 μU/min. In addition, the “Insulin secretion peak at G16.5 mM” value in experiment [3] (tested concentration 10 μM) is 1 637 μU/min.

In the case of `CCONC(=O)COCc1nc2ccccn2c1C#Cc1ccc(F)cc1` [Derivative 58, N-ethoxy-2-((3-((4-fluorophenyl)ethynyl)imidazo [1,2-a]pyridin-2-yl)methoxy) acetamide], in experiment [1], the “inhibition of hepatic production of glucose” value was “strongest inhibitions”, the “HGP % of ctrl @ 50 μM” value was 32 % of ctrl and the “HGP % of ctrl @ 100 μM” value is on record as 17 % of ctrl. Also, in experiment [2], the insulin secretion, % of control at 10 µM came to 127% and the insulin secretion, % of control at 50 µM is 233%.

Regarding `CCOC(=O)COCc1nc2ccccn2c1C#Cc1cccc(OC)c1` [Derivative 12, ethyl 2-((3-((3-methoxyphenyl)-ethynyl)imidazo[1,2-a]pyridin-2-yl)methoxy)acetate], in experiment [1], the “HGP % of ctrl @ 50 μM” value is 89 % of ctrl and the “HGP % of ctrl @ 100 μM” value is 54 % of ctrl. In experiment [2], the insulin secretion, % of control at 10 µM was 123% and the insulin secretion, % of control at 50 µM is 204%.

Take `O=C(O)COCc1nc2ccccn2c1C#Cc1ccc(F)cc1` [Derivative 44, 2-((3-((4-fluorophenyl)ethynyl)-imidazo[1,2-a]pyridin-2-yl)methoxy)acetic acid]: the “Insulin secretion peak at G16.5 mM” value in experiment [3] (tested concentration 10 μM) is given as 1 724 μU/min.

In the case of `O=C([O-])COCc1nc2ccccn2c1C#Cc1ccc(F)cc1.[Na+]` [Derivative 46, sodium 2-((3-((4-fluorophenyl)-ethynyl)imidazo[1,2-a]pyridin-2-yl)methoxy)acetate], in experiment [1], the “HGP % of ctrl @ 50 μM” value is 93 % of ctrl and the “HGP % of ctrl @ 100 μM” value is given as 52 % of ctrl. Besides, the activity at 50 µM in experiment [4] (50 μM, read-out: HGP % of ctrl @ 50 μM) is 85%. Also, the activity at 100 µM in experiment [4] (100 μM, read-out: HGP % of ctrl @ 100 μM) came to 69%.

Consider `O=C(O)CSCc1nc2ccc(Cl)cn2c1C#Cc1cccc(C(F)(F)F)c1` [Derivative 118, 2-[[6-chloro-3-[2-[3-(trifluoro-methyl)-phenyl]ethynyl]imidazo[1,2-a]pyridin-2-yl]methylsulfanyl] acetic acid], for which the “HGP % of ctrl @ 50 μM” value in experiment [1] is reported as 57 % of ctrl. Besides, the “% of activity on glycemia” value in experiment [5] (T1 h after administration, p = 0.0242) is −14%; in experiment [5] (T2 h after administration, p = 0.0171), −15%; in experiment [5] (T4 h after administration, p = 0.1468 NS) it was −10%; in experiment [5] (T6 h after administration, p = 0.2450 NS), −8%. Further, in experiment [5], the reduction of hyperglycaemia entry is recorded as “capable of reducing hyperglycaemia”.
